Test results: PubChem BioAssay AID2060503 (Molecular Pharmacology Branch, DTP, NCI, 2025)

System: 817829-284-R-J1-PDC complex spheroids, viability
Experiment: Anticancer human tumor 817829-284-R-J1-PDC patient-derived colon adenocarcinoma cell line growth inhibition [GQUAD]
Details: for IC50: curve of first compound; for viability, T/C: stronger effect = lower value
Procedure, shortened: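 Tumor cells were grown as complex spheroids with HUVEC endothelial cells and mesenchymal stem cells as stroma. G-quadruplex stabilizers were combined with targeted agents over half-log dilutions from near the clinical Cmax, or from 10 microM.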

[1] = second compound 0.0316 µM, first compound 0.0316 µM
[2] = second compound 0.0316 µM, first compound 0.1 µM
[3] = second compound 0.0316 µM, first compound 0.316 µM
[4] = second compound 0.0316 µM, first compound 1 µM
[5] = second compound 0.0316 µM, first compound 3.16 µM
[6] = second compound 0.0316 µM, first compound 10 µM
[7] = second compound 0.1 µM, first compound 0.0316 µM
[8] = second compound 0.1 µM, first compound 0.1 µM
[9] = second compound 0.1 µM, first compound 0.316 µM
[10] = second compound 0.1 µM, first compound 1 µM
[11] = second compound 0.1 µM, first compound 3.16 µM
[12] = second compound 0.1 µM, first compound 10 µM
[13] = second compound 0.316 µM, first compound 0.0316 µM
[14] = second compound 0.316 µM, first compound 0.1 µM
[15] = second compound 0.316 µM, first compound 0.316 µM
[16] = second compound 0.316 µM, first compound 1 µM
[17] = second compound 0.316 µM, first compound 3.16 µM
[18] = second compound 0.316 µM, first compound 10 µM
[19] = second compound 1 µM, first compound 0.0316 µM
[20] = second compound 1 µM, first compound 0.1 µM
[21] = second compound 1 µM, first compound 0.316 µM
[22] = second compound 1 µM, first compound 1 µM
[23] = second compound 1 µM, first compound 3.16 µM
[24] = second compound 1 µM, first compound 10 µM
[25] = second compound 3.16 µM, first compound 0.0316 µM
[26] = second compound 3.16 µM, first compound 0.1 µM
[27] = second compound 3.16 µM, first compound 0.316 µM
[28] = second compound 3.16 µM, first compound 1 µM
[29] = second compound 3.16 µM, first compound 3.16 µM
[30] = second compound 3.16 µM, first compound 10 µM
[31] = second compound 10 µM, first compound 0.0316 µM
[32] = second compound 10 µM, first compound 0.1 µM
[33] = second compound 10 µM, first compound 0.316 µM
[34] = second compound 10 µM, first compound 1 µM
[35] = second compound 10 µM, first compound 3.16 µM
[36] = second compound 10 µM, first compound 10 µM
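Note: spheroids exposed to agents for 7 days before readout.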
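Throughout, for viability, T/C: percent viability relative to DMSO vehicle control taken as 100%.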

COc1cccc2c1C(=O)c1c(O)c3c(c(O)c1C2=O)CC(O)(C(=O)CO)CC3OC1CC(N)C(O)C(C)O1 (centres undefined) + Cc1cnc(CNC(=O)c2c(=O)c3ccc(N4CCCN(C)CC4)nc3n3c2sc2ccccc23)cn1
IC50 (second compound 0.0316 µM): < 31.6 nM | IC50 (second compound 0.1 µM): < 31.6 nM | IC50 (second compound 0.316 µM): < 31.6 nM | IC50 (second compound 1 µM): < 31.6 nM | IC50 (second compound 3.16 µM): < 31.6 nM | IC50 (second compound 10 µM): < 31.6 nM | viability, T/C [1]: 50.1% | viability, T/C [2]: 28.6% | viability, T/C [3]: 25.7% | viability, T/C [4]: 7.54% | viability, T/C [5]: 0.23% | viability, T/C [6]: 0.16% | viability, T/C [7]: 27.2% | viability, T/C [8]: 26.8% | viability, T/C [9]: 17.2% | viability, T/C [10]: 9.6% | viability, T/C [11]: 0.27% | viability, T/C [12]: 0.19% | viability, T/C [13]: 21.8% | viability, T/C [14]: 24.4% | viability, T/C [15]: 18.2% | viability, T/C [16]: 6.76% | viability, T/C [17]: 0.15% | viability, T/C [18]: 0.22% | viability, T/C [19]: 19.9% | viability, T/C [20]: 21.5% | viability, T/C [21]: 18.9% | viability, T/C [22]: 8.23% | viability, T/C [23]: 0.07% | viability, T/C [24]: 0.08% | viability, T/C [25]: 17.8% | viability, T/C [26]: 16.4% | viability, T/C [27]: 13.9% | viability, T/C [28]: 7.35% | viability, T/C [29]: 0.11% | viability, T/C [30]: 0.11% | viability, T/C [31]: 0.07% | viability, T/C [32]: 0.12% | viability, T/C [33]: 0.16% | viability, T/C [34]: 0.12% | viability, T/C [35]: 0.19% | viability, T/C [36]: 0.18%

Nc1ccn(C2OC(CO)C(O)C2(F)F)c(=O)n1 (centres undefined) + Cc1cnc(CNC(=O)c2c(=O)c3ccc(N4CCCN(C)CC4)nc3n3c2sc2ccccc23)cn1
IC50 (second compound 0.0316 µM): < 31.6 nM | IC50 (second compound 0.1 µM): < 31.6 nM | IC50 (second compound 0.316 µM): < 31.6 nM | IC50 (second compound 1 µM): < 31.6 nM | IC50 (second compound 3.16 µM): < 31.6 nM | IC50 (second compound 10 µM): < 31.6 nM | viability, T/C [1]: 17.2% | viability, T/C [2]: 7.44% | viability, T/C [3]: 7.25% | viability, T/C [4]: 5.51% | viability, T/C [5]: 5.09% | viability, T/C [6]: 3.11% | viability, T/C [7]: 18% | viability, T/C [8]: 10.7% | viability, T/C [9]: 5.49% | viability, T/C [10]: 7.04% | viability, T/C [11]: 6.51% | viability, T/C [12]: 4.03% | viability, T/C [13]: 15.3% | viability, T/C [14]: 11.4% | viability, T/C [15]: 8.25% | viability, T/C [16]: 7.77% | viability, T/C [17]: 4.4% | viability, T/C [18]: 3.63% | viability, T/C [19]: 15.6% | viability, T/C [20]: 10.3% | viability, T/C [21]: 7.69% | viability, T/C [22]: 5.93% | viability, T/C [23]: 4.41% | viability, T/C [24]: 2.57% | viability, T/C [25]: 15% | viability, T/C [26]: 8.99% | viability, T/C [27]: 5.76% | viability, T/C [28]: 5.67% | viability, T/C [29]: 1% | viability, T/C [30]: 0.14% | viability, T/C [31]: 0.09% | viability, T/C [32]: 0.13% | viability, T/C [33]: 0.12% | viability, T/C [34]: 0.12% | viability, T/C [35]: 0.14% | viability, T/C [36]: 0.15%
